Paper PMC4476799, “Englerin A Agonizes the TRPC4/C5 Cation Channels to Inhibit Tumor Cell Line Proliferation” (PLoS ONE, 2015)
pEC50, pIC50: −log10 of the molar value. Where two headings read alike, the source gives them in different places.

Test system: cancer cell lines from the cancer cell line encyclopedia (CCLE)
Assay: Cell line profiling (CLiP) proliferation experiment
Assay type: cell-based
Details: for pIC50: read-out: Crossing Point; for pEC50: read-out: Inflection Point
Description: Compound profiling experiment and data analysis was performed as previously described. Data was imported and plotted using the Tibco Spotfire DXP application. Lines were categorized as sensitive, intermediate and refractory as follows: Amax<-40 & Inflection Point <2 ~ Sensitive, Amax>-20 & Inflection Point >10 ~ Refractory, all else were called Intermediate. Cancer Cell line HG-U133 Plus 2 data was processed and normalized as described. […] Five sets of refractory cell lines were generated from the pool of refractory cell lines trying to match the lineage composition of the set of sensitive cell lines. The limma package was used as previously described to perform the statistical comparison.

[1] = HT115, cell line HT115, large_intestine
[2] = Homo sapiens, 8-MG-BA, cell line 8-MG-BA, central_nervous_system, astrocytoma_Grade_IV
[3] = Homo sapiens, 769-P, cell line 769-P, kidney, clear_cell_renal_cell_carcinoma
[4] = Homo sapiens, A101D, A101D cells
[5] = Homo sapiens, A101D, cell line A101D, skin, NS
[6] = Homo sapiens, A204, cell line A-204, soft_tissue, NS
[7] = Homo sapiens, A2780, cell line A2780, ovary, adenocarcinoma
[8] = Homo sapiens, ABC-1, ABC-1 cells
[9] = Homo sapiens, ABC-1, cell line ABC-1, lung, non_small_cell_carcinoma
[10] = Homo sapiens, AMO1, cell line AMO-1, haematopoietic_and_lymphoid_tissue, plasma_cell_myeloma
[11] = Homo sapiens, BFTC-909, cell line BFTC-909, kidney, NS
[12] = Homo sapiens, BL-41, cell line BL-41, haematopoietic_and_lymphoid_tissue, Burkitt_lymphoma
[13] = Homo sapiens, BV-173, cell line BV-173, haematopoietic_and_lymphoid_tissue, blast_phase_chronic_myeloid_leukaemia
[14] = Homo sapiens, CAKI-1, cell line Caki-1, kidney, clear_cell_renal_cell_carcinoma
[15] = Homo sapiens, CAL-54, CAL-54, kidney, renal_cell_carcinoma
[16] = Homo sapiens, CAL-54, CAL-54 cells
[17] = Homo sapiens, CAL-85-1, CAL-85-1, breast, NS
[18] = Homo sapiens, CAL-85-1, CAL-85-1 cells
[19] = Homo sapiens, CAL-120, cell line CAL-120, breast, NS
[20] = Homo sapiens, CAPAN-1, Capan-1, pancreas, ductal_carcinoma
[21] = Homo sapiens, CFPAC-1, CFPAC-1, pancreas, ductal_carcinoma
[22] = Homo sapiens, CHP-212, CHP-212, autonomic_ganglia, NS
[23] = Homo sapiens, COLO 205, COLO 205, large_intestine, adenocarcinoma
[24] = Homo sapiens, COLO-668, COLO 668, lung, small_cell_carcinoma
[25] = Homo sapiens, COLO-668, COLO 668 cells
[26] = Homo sapiens, COLO-741, COLO 741, skin, NS
[27] = Homo sapiens, COLO-741, COLO 741 cells
[28] = Homo sapiens, COR-L279, COR-L279, lung, small_cell_carcinoma
[29] = Homo sapiens, Calu-6, Calu-6, lung, undifferentiated_carcinoma
[30] = Homo sapiens, Calu-6, Calu-6 cells
[31] = Homo sapiens, DMS-114, DMS 114, lung, small_cell_carcinoma
[32] = Homo sapiens, DMS-273, DMS 273, lung, small_cell_carcinoma
[33] = Homo sapiens, DOHH-2, cell line DOHH-2, haematopoietic_and_lymphoid_tissue
[34] = Homo sapiens, DV-90, cell line DV-90, lung
[35] = Homo sapiens, EBC-1, cell line EBC-1, lung
[36] = Homo sapiens, EFM-19, cell line EFM-19, breast
[37] = Homo sapiens, FaDu, cell line FaDu, upper_aerodigestive_tract
[38] = Homo sapiens, G-401, cell line G-401, soft_tissue
[39] = Homo sapiens, HCC95, cell line HCC-95, lung
[40] = Homo sapiens, HCC1143, cell line HCC1143, breast

CC(C)[C@@]12C[C@@H](O)[C@@](C)(O1)[C@@H]1CC[C@@H](C)[C@H]1[C@@H]2OC(=O)/C=C/c1ccccc1 [Englerin B]
5.15: pEC50 [36]
4.96: pIC50 (Homo sapiens, COLO 320, COLO-320, large_intestine, adenocarcinoma)
5.47: pEC50 [20]
5.00: pIC50 (Homo sapiens, G-402, cell line G-402, soft_tissue)
4.91: pEC50 [1] | pEC50 (Homo sapiens, AMO1, AMO-1 cells) | pEC50 [10]
4.83: pIC50 (Homo sapiens, A253, cell line A-253, salivary_gland, mucoepidermoid_carcinoma) | pIC50 [7] | pEC50 [34]
4.57: pEC50 [39]
4.71: pIC50 (Homo sapiens, BT-549, cell line BT-549, breast, ductal_carcinoma) | pIC50 (Homo sapiens, HCC827, cell line HCC827, lung)
4.62: pIC50 [35]
4.64: pIC50 (Homo sapiens, A549, cell line A549, lung, adenocarcinoma) | pIC50 [22] | pIC50 (Homo sapiens, HCC44, cell line HCC-44, lung)
5.01: pEC50 [40]
4.63: pEC50 [8] | pEC50 [9]
< 4.52: pIC50 (HEC-50B, cell line HEC-50B) | pIC50 (HEC-251, cell line HEC-251, endometrium) | pIC50 (HEC-251, cell line HEC-251) | pIC50 (HEY A8, cell line Hey-A8, ovary) | pIC50 (HEY A8, cell line Hey-A8) | pIC50 (Homo sapiens, 769-P, 769-P (kidney)) | pIC50 [3] | pIC50 (Homo sapiens, 786-0, cell line 786-O, kidney, clear_cell_renal_cell_carcinoma) | pIC50 (Homo sapiens, 786-0, cell line 786-O) | pIC50 (Homo sapiens, 1321-N1, cell line 1321N1 (central_nervous_system, astrocytoma)) | pIC50 (Homo sapiens, 1321-N1, cell line 1321N1, central_nervous_system, astrocytoma) | pIC50 (Homo sapiens, 8305C, 8305C (thyroid)) | pIC50 (Homo sapiens, 8305C, cell line 8305C, thyroid, anaplastic_carcinoma) | pIC50 [4] | pIC50 [5] | pIC50 (Homo sapiens, A 172, cell line A172, central_nervous_system, astrocytoma_Grade_IV) | pIC50 (Homo sapiens, A 172, cell line A172) | pIC50 (Homo sapiens, A204, cell line A-204) | pIC50 [6] | pIC50 (Homo sapiens, A673, A-673 cells) | pIC50 (Homo sapiens, A673, cell line A-673, bone, NS) | pIC50 (Homo sapiens, A-375, A-375 cells) | pIC50 (Homo sapiens, A-375, cell line A-375, skin, NS) | pIC50 [8] | pIC50 [9] | pIC50 (Homo sapiens, ACHN, ACHN cells) | pIC50 (Homo sapiens, ACHN, cell line ACHN, kidney, renal_cell_carcinoma) | pIC50 [11] | pIC50 (Homo sapiens, BFTC-909, cell line BFTC-909) | pIC50 (Homo sapiens, BT-20, BT-20 cells) | pIC50 (Homo sapiens, BT-20, cell line BT-20, breast, ductal_carcinoma) | pIC50 (Homo sapiens, C32, C32 cells) | pIC50 (Homo sapiens, CAKI-1, Caki-1 (kidney)) | pIC50 [14] | pIC50 (Homo sapiens, CAKI-2, Caki-2 (kidney)) | pIC50 (Homo sapiens, CAKI-2, cell line Caki-2, kidney, clear_cell_renal_cell_carcinoma) | pIC50 (Homo sapiens, CAL-51, CAL-51 cells) | pIC50 (Homo sapiens, CAL-51, cell line CAL-51, breast, NS) | pIC50 [15] | pIC50 [16] | pIC50 [17] | pIC50 [18] | pIC50 (Homo sapiens, CAMA-1, CAMA-1 (breast)) | pIC50 (Homo sapiens, CAMA-1, CAMA-1, breast, NS) | pIC50 (Homo sapiens, CAPAN-1, Capan-1 (pancreas)) | pIC50 [20] | pIC50 (Homo sapiens, CCRF-CEM, CCRF-CEM cells) | pIC50 (Homo sapiens, CCRF-CEM, haematopoietic_and_lymphoid_tissue, acute_lymphoblastic_T_cell_leukaemia) | pIC50 (Homo sapiens, CMK, CMK cells) | pIC50 (Homo sapiens, COLO-680N, COLO-680N (oesophagus)) | pIC50 (Homo sapiens, COLO-680N, oesophagus, squamous_cell_carcinoma) | pIC50 [26] | pIC50 [27] | pIC50 (Homo sapiens, COLO-800, COLO-800, skin, NS) | pIC50 (Homo sapiens, COLO-800, cell line COLO-800 (skin, NS)) | pIC50 (Homo sapiens, COLO-829, COLO 829, skin, NS) | pIC50 (Homo sapiens, COLO-829, COLO 829 cells) | pIC50 (Homo sapiens, COR-L23, COR-L23 (lung)) | pIC50 (Homo sapiens, COR-L23, COR-L23, lung, large_cell_carcinoma) | pIC50 (Homo sapiens, COR-L47, COR-L47, lung, small_cell_carcinoma) | pIC50 (Homo sapiens, COR-L47, COR-L47 cells) | pIC50 (Homo sapiens, COR-L88, COR-L88 (lung)) | pIC50 (Homo sapiens, COR-L88, COR-L88, lung, small_cell_carcinoma) | pIC50 (Homo sapiens, Calu-1, Calu-1, lung, squamous_cell_carcinoma) | pIC50 (Homo sapiens, Calu-1, cell line Calu-1) | pIC50 (Homo sapiens, Calu-3, Calu-3 (lung)) | pIC50 (Homo sapiens, Calu-3, Calu-3, lung, adenocarcinoma) | pIC50 [29] | pIC50 [30] | pIC50 (Homo sapiens, DBTRG-05MG, cell line DBTRG-05MG (central_nervous_system, astrocytoma_Grade_IV)) | pIC50 (Homo sapiens, DBTRG-05MG, central_nervous_system, astrocytoma_Grade_IV) | pIC50 (Homo sapiens, DMS-79, DMS 79 (lung)) | pIC50 (Homo sapiens, DMS-79, cell line DMS 79, lung) | pIC50 (Homo sapiens, Daoy, Daoy (central_nervous_system)) | pIC50 (Homo sapiens, Daoy, central_nervous_system, NS) | pIC50 (Homo sapiens, Detroit 562, Detroit 562, upper_aerodigestive_tract, NS) | pIC50 (Homo sapiens, Detroit 562, cell line Detroit 562) | pIC50 (Homo sapiens, EFM-19, cell line EFM-19 (breast, ductal_carcinoma)) | pIC50 [36] | pIC50 (Homo sapiens, G-361, cell line G-361, skin) | pIC50 (Homo sapiens, G-361, cell line G-361) | pIC50 (Homo sapiens, GA-10, cell line GA-10, haematopoietic_and_lymphoid_tissue) | pIC50 (Homo sapiens, GA-10, cell line GA-10) | pIC50 (Homo sapiens, GAMG, GAMG (central_nervous_system)) | pIC50 (Homo sapiens, GAMG, cell line GAMG, central_nervous_system) | pIC50 (Homo sapiens, GMS-10, cell line GMS-10, central_nervous_system) | pIC50 (Homo sapiens, GMS-10, cell line GMS-10) | pIC50 (Homo sapiens, Granta-519, cell line GRANTA-519, haematopoietic_and_lymphoid_tissue) | pIC50 (Homo sapiens, Granta-519, cell line GRANTA-519) | pIC50 (Homo sapiens, HCC38, cell line HCC38, breast) | pIC50 (Homo sapiens, HCC38, cell line HCC38) | pIC50 [40]
4.94: pEC50 (Homo sapiens, CAL-120, CAL-120 cells) | pEC50 [19] | pEC50 [26] | pEC50 [27] | pEC50 [29] | pEC50 [30] | pEC50 [35]
5.17: pIC50 [28] | pEC50 [28]
4.89: pIC50 [13] | pEC50 [33] | pEC50 [37]
4.66: pIC50 (Homo sapiens, DLD-1, DLD-1, large_intestine, adenocarcinoma)
4.76: pEC50 [6] | pIC50 [12] | pIC50 [31] | pIC50 (Homo sapiens, DMS-114, cell line DMS 114)
4.65: pIC50 [19]
4.80: pEC50 [2] | pEC50 [15] | pEC50 [16] | pIC50 (Homo sapiens, GCIY, cell line GCIY, stomach)
4.82: pIC50 (Homo sapiens, Caov-3, Caov-3, ovary, adenocarcinoma)
4.69: pEC50 [3] | pIC50 (Homo sapiens, AU565, cell line AU565, breast, NS)
4.88: pIC50 [10] | pEC50 [14] | pIC50 [33]
4.58: pIC50 [2] | pIC50 (Homo sapiens, BXPC-3, cell line BxPC-3, pancreas, ductal_carcinoma) | pIC50 (Homo sapiens, CHL-1, CHL-1, skin, NS) | pIC50 (Homo sapiens, CHL-1, CHL-1 cells) | pIC50 [24] | pEC50 [24] | pIC50 [25] | pEC50 [25]
4.93: pEC50 [23] | pEC50 (Homo sapiens, COLO 205, COLO 205 cells) | pEC50 [31] | pIC50 (Homo sapiens, EOL1, cell line EOL-1, haematopoietic_and_lymphoid_tissue)
4.56: pIC50 (Homo sapiens, 22Rv1, cell line 22Rv1, prostate, NS) | pEC50 [17] | pEC50 [18] | pIC50 [39]
4.86: pEC50 [22] | pEC50 (Homo sapiens, CHP-212, CHP-212 cells) | pEC50 [32]
4.68: pIC50 (Homo sapiens, AN3-CA, cell line AN3 CA, endometrium, adenocarcinoma) | pIC50 (Homo sapiens, AN3-CA, cell line AN3 CA)
4.90: pIC50 (Homo sapiens, A498, cell line A-498, kidney, renal_cell_carcinoma) | pEC50 (Homo sapiens, BV-173, BV-173 cells) | pEC50 [13] | pEC50 [21]
5.05: pIC50 (Homo sapiens, DU-145, cell line DU 145, prostate)
4.73: pIC50 (Homo sapiens, A2058, cell line A2058, skin, NS) | pIC50 (Homo sapiens, ESS-1, cell line ESS-1, endometrium)
4.92: pEC50 (Homo sapiens, A2780, A2780 cells) | pEC50 [7] | pEC50 [38] | pEC50 (Homo sapiens, G-401, cell line G-401)
4.84: pIC50 [38]
4.53: pIC50 [21]
4.75: pIC50 [34] | pIC50 [37]
7.00: pEC50 [11]
4.78: pEC50 (Homo sapiens, BL-41, BL-41 cells) | pEC50 [12] | pIC50 [23] | pIC50 [32]
4.72: pIC50 [1] | pEC50 [4] | pEC50 [5]
